Laboratory results: patent US20230131966A1, “FUNGICIDAL AMIDES” (FMC Corporation, priority 2020, published 2023)

Key:
Format in all cases: in vivo
Plasmopara viticola = experiment: Test D: grape downy mildew control on grape seedlings; conditions: for Test D disease control rating / pest or weed control at 250 ppm: 100 = 100% disease control, 0 = no control; for pest or weed control at 250 ppm: Plasmopara viticola, read-out: Test D disease control rating
[1] = test system: Puccinia recondita f. sp. tritici; experiment: Test B: wheat leaf rust control on wheat seedlings; conditions: for Test B disease control rating / pest or weed control at 250 ppm: wheat seedlings, 100 = 100% disease control, 0 = no control; for pest or weed control at 250 ppm: Puccinia recondita, read-out: Test B disease control rating
Zymoseptoria tritici = experiment: Test C: wheat leaf blotch control on wheat seedlings; conditions: for Test C disease control rating / pest or weed control at 250 ppm: wheat seedlings, 100 = 100% disease control, 0 = no control; for pest or weed control at 250 ppm: Zymoseptoria tritici, read-out: Test C disease control rating
[2] = test system: Erysiphe graminis f. sp. tritici; experiment: Test G: wheat powdery mildew control on wheat seedlings; conditions: for Test G disease control rating / pest or weed control at 250 ppm: 100 = 100% disease control, 0 = no control; for pest or weed control at 250 ppm: Blumeria graminis, read-out: Test G disease control rating
Phakopsora pachyrhizi = experiment: Test A: Asian soybean rust control on soybean seedlings; conditions: for Test A disease control rating / pest or weed control at 250 ppm: soybean seedlings, 100 = 100% disease control, 0 = no control; for pest or weed control at 250 ppm: Phakopsora pachyrhizi, read-out: Test A disease control rating
Botrytis cinerea = experiment: Test E: tomato Botrytis control on tomato seedlings; conditions: for Test E disease control rating / pest or weed control at 250 ppm: 100 = 100% disease control, 0 = no control; for pest or weed control at 250 ppm: Botrytis cinerea, read-out: Test E disease control rating
Phytophthora infestans = experiment: whole plant or invertebrate; conditions: tomato seedlings; for Test F disease control rating / pest or weed control at 250 ppm: 100 = 100% disease control, 0 = no control; for pest or weed control at 250 ppm: Phytophthora infestans, in Solanum lycopersicum, read-out: Test F disease control rating, 250 ppm
[3] = rate 250 ppm, relative to the controls

COc1ccnc(C(=O)NC(C)C(=O)OC(C)C2COc3ccccc32)c1OC(C)=O (mixture of isomers) [Compound 191]
Test D disease control rating (100 = 100% disease control, 0 = no disease control) (Plasmopara viticola; [3]): 26%
Test B disease control rating (100 = 100% disease control, 0 = no disease control) [1, 3]: 96%
Test C disease control rating (100 = 100% disease control, 0 = no disease control) (Zymoseptoria tritici; [3]): 89%
Test G disease control rating (100 = 100% disease control, 0 = no disease control) [2, 3]: 21%
Test A disease control rating (100 = 100% disease control, 0 = no disease control) (Phakopsora pachyrhizi; [3]): 100%
Test E disease control rating (100 = 100% disease control, 0 = no disease control) (Botrytis cinerea; [3]): 0%
Test F disease control rating (100 = 100% disease control, 0 = no disease control) (Phytophthora infestans; [3]): 0%

COc1ccnc(C(=O)NC(C)C(=O)OC(C)c2ccc(C(F)(F)F)cc2)c1OC(C)=O (mixture of isomers) [Compound 35]
Test D disease control rating (Plasmopara viticola; 250 ppm): 68%
Test B disease control rating ([1]; 250 ppm): 100%
Test C disease control rating (Zymoseptoria tritici; 250 ppm): 80%
Test G disease control rating ([2]; 250 ppm): 0%
Test A disease control rating (Phakopsora pachyrhizi; 250 ppm): 100%
Test E disease control rating (Botrytis cinerea; 250 ppm): 0%
Test F disease control rating (Phytophthora infestans; 250 ppm): 0%

COc1ccnc(C(=O)N[C@H](C(=O)OC(C)c2ccc(C3CCCCC3)cc2)C(C)C)c1OC(C)=O (mixture of isomers) [Compound 79, N-[[3-(acetyloxy)-4-methoxy-2-pyridinyl]carbonyl]-L-valine 1-(4-cyclohexylphenyl)ethyl ester]
pest or weed control at 250 ppm (Plasmopara viticola; 250 ppm): 11%
pest or weed control at 250 ppm ([1]; 250 ppm): 100%
pest or weed control at 250 ppm (Zymoseptoria tritici; 250 ppm): 100%
pest or weed control at 250 ppm ([2]; 250 ppm): 0%
pest or weed control at 250 ppm (Phakopsora pachyrhizi; 250 ppm): 100%
pest or weed control at 250 ppm (Botrytis cinerea; 250 ppm): 0%
pest or weed control at 250 ppm (Phytophthora infestans): 0%

CCC(OC(=O)[C@H](C)NC(=O)c1nccc(OC)c1OC(C)=O)c1ccc(C2CCCCC2)cc1 (mixture of isomers) [Compound 100, N-[[3-(acetyloxy)-4-methoxy-2-pyridinyl]carbonyl]-L-alanine 1-(4-cyclohexylphenyl)propyl ester]
pest or weed control at 250 ppm (Plasmopara viticola; 250 ppm): 32%
pest or weed control at 250 ppm ([1]; 250 ppm): 99%
pest or weed control at 250 ppm (Zymoseptoria tritici; 250 ppm): 88%
pest or weed control at 250 ppm ([2]; 250 ppm): 0%
pest or weed control at 250 ppm (Phakopsora pachyrhizi; 250 ppm): 100%
pest or weed control at 250 ppm (Botrytis cinerea; 250 ppm): 0%
pest or weed control at 250 ppm (Phytophthora infestans): 0%

C#Cc1ccc(C(C)OC(=O)C(C)NC(=O)c2nccc(OC)c2O)cc1 (mixture of isomers) [Compound 78]
Test D disease control rating (Plasmopara viticola; 250 ppm): 85%
Test B disease control rating ([1]; 250 ppm): 100%
Test C disease control rating (Zymoseptoria tritici; 250 ppm): 82%
Test G disease control rating ([2]; 250 ppm): 0%
Test A disease control rating (Phakopsora pachyrhizi; 250 ppm): 100%
Test E disease control rating (Botrytis cinerea; 250 ppm): 0%
Test F disease control rating (Phytophthora infestans; 250 ppm): 0%

CCC(OC(=O)[C@H](C)NC(=O)c1nccc(OC)c1OCOC(=O)C(C)C)c1ccc(C2CCCCC2)cc1 (single isomer, unassigned) [Compound 132]
Test D disease control rating (Plasmopara viticola; 250 ppm): 29%
Test B disease control rating ([1]; 250 ppm): 68%
Test C disease control rating (Zymoseptoria tritici; 250 ppm): 30%
Test G disease control rating ([2]; 250 ppm): 0%
Test A disease control rating (Phakopsora pachyrhizi; 250 ppm): 75%
Test E disease control rating (Botrytis cinerea; 250 ppm): 0%
Test F disease control rating (Phytophthora infestans; 250 ppm): 0%

COc1ccnc(C(=O)N[C@@H](C)C(=O)OC(C)c2ccccc2-c2ccccc2)c1O (single isomer, unassigned) [Compound 1]
Test D disease control rating (Plasmopara viticola; 250 ppm): 36%
Test B disease control rating ([1]; 250 ppm): 89%
Test C disease control rating (Zymoseptoria tritici; 250 ppm): 81%
Test G disease control rating ([2]; 250 ppm): 0%
Test A disease control rating (Phakopsora pachyrhizi; 250 ppm): 100%
Test E disease control rating (Botrytis cinerea; 250 ppm): 0%
Test F disease control rating (Phytophthora infestans; 250 ppm): 0%

COc1ccnc(C(=O)N[C@@H](C)C(=O)OC(C)c2ccccc2-c2ccccc2)c1O (single isomer, unassigned) [Compound 2]
Test D disease control rating (Plasmopara viticola; 250 ppm): 63%
Test B disease control rating ([1]; 250 ppm): 55%
Test C disease control rating (Zymoseptoria tritici; 250 ppm): 73%
Test G disease control rating ([2]; 250 ppm): 0%
Test A disease control rating (Phakopsora pachyrhizi; 250 ppm): 99%
Test E disease control rating (Botrytis cinerea; 250 ppm): 0%
Test F disease control rating (Phytophthora infestans; 250 ppm): 0%

COc1ccnc(C(=O)N[C@@H](C)C(=O)OC(c2ccc(C3CCCCC3)cc2)C(F)(F)F)c1OC(C)=O (some centres unmarked) [Compound 119]
Test D disease control rating (Plasmopara viticola; 250 ppm): 27%
Test B disease control rating ([1]; 250 ppm): 99%
Test C disease control rating (Zymoseptoria tritici; 250 ppm): 88%
Test G disease control rating ([2]; 250 ppm): 48%
Test A disease control rating (Phakopsora pachyrhizi; 250 ppm): 100%
Test E disease control rating (Botrytis cinerea; 250 ppm): 0%
Test F disease control rating (Phytophthora infestans; 250 ppm): 0%

CCC(OC(=O)[C@H](C)NC(=O)c1nccc(OC)c1OC(C)=O)C1CCCCC1 (mixture of isomers) [Compound 83, N-[[3-(acetyloxy)-4-methoxy-2-pyridinyl]carbonyl]-L-alanine 1-cyclohexylpropyl ester]
pest or weed control at 250 ppm (Plasmopara viticola; 250 ppm): 27%
pest or weed control at 250 ppm ([1]; 250 ppm): 100%
pest or weed control at 250 ppm (Zymoseptoria tritici; 250 ppm): 97%
pest or weed control at 250 ppm ([2]; 250 ppm): 0%
pest or weed control at 250 ppm (Phakopsora pachyrhizi; 250 ppm): 100%
pest or weed control at 250 ppm (Botrytis cinerea; 250 ppm): 0%
pest or weed control at 250 ppm (Phytophthora infestans): 0%

COc1ccnc(C(=O)NC(C)C(=O)OC(C)c2ccc(C3CCCC3)cc2)c1OC(C)=O (mixture of isomers) [Compound 64]
Test D disease control rating (Plasmopara viticola; 50 ppm): 86%
Test B disease control rating ([1]; 50 ppm): 99%
Test C disease control rating (Zymoseptoria tritici; 50 ppm): 13%
Test G disease control rating ([2]; 50 ppm): 0%
Test A disease control rating (Phakopsora pachyrhizi; 50 ppm): 100%
Test E disease control rating (Botrytis cinerea; 50 ppm): 0%
Test F disease control rating (Phytophthora infestans; 50 ppm): 0%

COc1ccnc(C(=O)NC(C)C(=O)OC(C)C2CCC(C)(C)CC2)c1O (mixture of isomers) [Compound 173]
Test D disease control rating (Plasmopara viticola; 250 ppm): 8%
Test B disease control rating ([1]; 250 ppm): 98%
Test C disease control rating (Zymoseptoria tritici; 250 ppm): 66%
Test G disease control rating ([2]; 250 ppm): 0%
Test A disease control rating (Phakopsora pachyrhizi; 250 ppm): 100%
Test E disease control rating (Botrytis cinerea; 250 ppm): 0%
Test F disease control rating (Phytophthora infestans; 250 ppm): 0%

COc1ccnc(C(=O)N[C@@H](C)C(=O)OC(c2ccc(C3CCCCC3)cc2)C(F)(F)F)c1O (some centres unmarked) [Compound 120]
Test D disease control rating (Plasmopara viticola; 250 ppm): 24%
Test B disease control rating ([1]; 250 ppm): 94%
Test C disease control rating (Zymoseptoria tritici; 250 ppm): 95%
Test G disease control rating ([2]; 250 ppm): 0%
Test A disease control rating (Phakopsora pachyrhizi; 250 ppm): 99%
Test E disease control rating (Botrytis cinerea; 250 ppm): 0%
Test F disease control rating (Phytophthora infestans; 250 ppm): 0%

COc1ccnc(C(=O)N[C@@H](C)C(=O)OC(C)c2ccc(F)cc2Cc2ccccc2)c1O (single isomer, unassigned) [Compound 24]
Test D disease control rating (Plasmopara viticola; 250 ppm): 61%
Test B disease control rating ([1]; 250 ppm): 68%
Test C disease control rating (Zymoseptoria tritici; 250 ppm): 5%
Test G disease control rating ([2]; 250 ppm): 0%
Test A disease control rating (Phakopsora pachyrhizi; 250 ppm): 97%
Test E disease control rating (Botrytis cinerea; 250 ppm): 0%
Test F disease control rating (Phytophthora infestans; 250 ppm): 0%

COc1ccnc(C(=O)NC(C)C(=O)OC(C)C2CCC(C(C)(C)C)CC2)c1O (mixture of isomers) [Compound 176]
Test D disease control rating (Plasmopara viticola; 250 ppm): 14%
Test B disease control rating ([1]; 250 ppm): 89%
Test C disease control rating (Zymoseptoria tritici; 250 ppm): 57%
Test G disease control rating ([2]; 250 ppm): 0%
Test A disease control rating (Phakopsora pachyrhizi; 250 ppm): 99%
Test E disease control rating (Botrytis cinerea; 250 ppm): 0%
Test F disease control rating (Phytophthora infestans; 250 ppm): 0%

COc1ccnc(C(=O)NC(C)C(=O)OC(C)c2ccccc2-n2ccc(C(F)(F)F)n2)c1OC(C)=O (mixture of isomers) [Compound 25]
Test D disease control rating (Plasmopara viticola; 250 ppm): 41%
Test B disease control rating ([1]; 250 ppm): 0%
Test C disease control rating (Zymoseptoria tritici; 250 ppm): 17%
Test G disease control rating ([2]; 250 ppm): 0%
Test A disease control rating (Phakopsora pachyrhizi; 250 ppm): 97%
Test E disease control rating (Botrytis cinerea; 250 ppm): 0%
Test F disease control rating (Phytophthora infestans; 250 ppm): 0%

CCC(OC(=O)[C@H](C)NC(=O)c1nccc(OC)c1O)C1CCCCC1 (single isomer, unassigned) [Compound 167]
Test D disease control rating (Plasmopara viticola; 250 ppm): 41%
Test B disease control rating ([1]; 250 ppm): 100%
Test C disease control rating (Zymoseptoria tritici; 250 ppm): 90%
Test G disease control rating ([2]; 250 ppm): 0%
Test A disease control rating (Phakopsora pachyrhizi; 250 ppm): 100%
Test E disease control rating (Botrytis cinerea; 250 ppm): 0%
Test F disease control rating (Phytophthora infestans; 250 ppm): 0%

COc1ccnc(C(=O)NC(C)C(=O)OC(C)c2cccc3ccccc23)c1O (centres unmarked) [Compound 113]
Test D disease control rating (Plasmopara viticola; 250 ppm): 94%
Test B disease control rating ([1]; 250 ppm): 0%
Test C disease control rating (Zymoseptoria tritici; 250 ppm): 42%
pest or weed control at 250 ppm ([2]; 250 ppm): 0%
pest or weed control at 250 ppm (Phakopsora pachyrhizi; 250 ppm): 90%
pest or weed control at 250 ppm (Botrytis cinerea; 250 ppm): 0%
pest or weed control at 250 ppm (Phytophthora infestans): 0%

COc1ccnc(C(=O)NC(C)C(=O)OC(C)C23CC4CC(CC(C4)C2)C3)c1OC(C)=O (mixture of isomers) [Compound 43]
Test D disease control rating (Plasmopara viticola; 250 ppm): 71%
Test B disease control rating ([1]; 250 ppm): 100%
Test C disease control rating (Zymoseptoria tritici; 250 ppm): 90%
Test G disease control rating ([2]; 250 ppm): 0%
Test A disease control rating (Phakopsora pachyrhizi; 250 ppm): 100%
Test E disease control rating (Botrytis cinerea; 250 ppm): 0%
Test F disease control rating (Phytophthora infestans; 250 ppm): 0%

CCOC(=O)c1cnn(-c2ccc(C(C)OC(=O)C(C)NC(=O)c3nccc(OC)c3OC(C)=O)cc2)c1 (mixture of isomers) [Compound 47]
Test D disease control rating (Plasmopara viticola; 250 ppm): 20%
Test B disease control rating ([1]; 250 ppm): 68%
Test C disease control rating (Zymoseptoria tritici; 250 ppm): 51%
Test G disease control rating ([2]; 250 ppm): 0%
Test A disease control rating (Phakopsora pachyrhizi; 250 ppm): 99%
Test E disease control rating (Botrytis cinerea; 250 ppm): 0%
Test F disease control rating (Phytophthora infestans; 250 ppm): 0%
